In US20090111741A1, “METHOD FOR TREATING AND/OR […] SEEKING BEHAVIOR” (priority 2007, published 2009):
Read-outs that look alike come from different tables or passages of the source. Square brackets hold non-standard residues; d marks the D form. Peptide text beside a SMILES is read from it.

Columns and labels:
[1] = BBMEC permeability (in-vitro model of the blood-brain barrier); details: for Papp: pH 7.4
[2] = metabolic stability in rat plasma; format: in vitro ADME; details: read-out: Rat plasma t1/2
Excerpt: The metabolic stability of the peptides depends on the modifications to the peptides. […] As expected, peptides without N-terminal modification were rapidly metabolized (Table 2), presumably by aminopeptidases. […] Homogenization is likely to rupture cell membranes, releasing intracellular proteases that could metabolize these peptides, so that this system may not accurately reflect the metabolism that occurs in vivo. Endopeptidases capable of metabolizing Dyn A are also present on red blood cells, and can rapidly metabolize some Dyn A-(1-11) amide analogs, e.g. arodyn.

[3] = rat, blood
[4] = rat, brain homogenate, half life (t1/2) in rat brain homogenate
kappa-opioid receptor = details: in vivo; cited from earlier work
[5] = biological target: T1, kappa-opioid receptor (KOR) (Mus musculus, UniProt P33534); details: animal models, after a single dose; cited from earlier work
T1 construct: from tissue; host or cells: living C57B1/6J mice (central and peripheral KOR)

in vitro = details: rat, brain homogenate, half life (t1/2) in rat brain homogenate
[6] = observation of side effects in mice; details: mouse, in vivo
Excerpt: The ability of zyklophin to cross the BBB allows for any type of systemic administration, such as subcutaneous administration. Accordingly, zyklophin can be administered in a manner other than, but including, intercerebroventricular administration. Moreover, the ability of zyklophin to cross the BBB allows for a myriad of formulation opportunities, where the formulation can be prepared for a suitable mode or route of administration. As a consequence of having high selectivity for KOR and BBB permeability, zyklophin is a favorable drug candidate and as a lead drug for derivatizations and analoging. […] The mice data is discussed in more detail herein and in the incorporated references.

[7] = biological target: kappa-opioid receptor (KOR) (Rattus norvegicus, UniProt P34975); assay: binding affinity (Ki) at KOR
KOR = KOR (Rattus norvegicus, UniProt P34975); assay: antagonist activity (adenylyl cyclase assay); format: cell-based
Sequence of KOR (P34975 whole entry): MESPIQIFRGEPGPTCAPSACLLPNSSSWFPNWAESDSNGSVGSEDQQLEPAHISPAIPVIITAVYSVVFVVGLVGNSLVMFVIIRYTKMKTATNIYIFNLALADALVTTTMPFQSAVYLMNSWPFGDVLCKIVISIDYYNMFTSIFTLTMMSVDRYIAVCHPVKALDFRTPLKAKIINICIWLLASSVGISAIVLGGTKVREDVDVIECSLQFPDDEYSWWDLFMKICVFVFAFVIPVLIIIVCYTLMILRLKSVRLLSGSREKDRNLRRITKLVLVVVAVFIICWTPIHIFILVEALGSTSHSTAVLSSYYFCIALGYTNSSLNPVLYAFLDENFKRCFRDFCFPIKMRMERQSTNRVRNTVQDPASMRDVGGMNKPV

T1 sequence (P33534 whole entry): as the sequence (P34975 whole entry) above, with E11D, A17S, P51S, V308A counted along it
Sequence of kappa-opioid receptor (KOR) (Rattus norvegicus, UniProt P34975) (P34975 whole entry): as the sequence (P34975 whole entry) above

Structure (SMILES)	efflux ratio [1]	Papp [1]	half-life [2]	duration of action of KOR antagonism (literature) [5]	further results
CC[C@H](C)[C@H](NC(=O)[C@H](CCCNC(=N)N)NC(=O)[C@H](CCCNC(=N)N)NC(=O)[C@H](CC(C)C)NC(=O)[C@H](Cc1ccccc1)NC(=O)CNC(=O)CNC(=O)[C@H](Cc1ccc(O)cc1)NC(C)=O)C(=O)N[C@@H](CCCNC(=N)N)C(=O)N1CCC[C@H]1C(=O)N[C@@H](CCCCN)C(N)=O [Ac-Dyn A-(1-11)NH2]	2.4	7.1 ± 2.3 ×10⁻⁶ cm/s	1.85 ± 0.283 h	–	–
CC(=O)N[C@@H](Cc1ccccc1)C(=O)N[C@@H](Cc1ccccc1)C(=O)N[C@@H](Cc1ccccc1)C(=O)N[C@@H](CCCNC(=N)N)C(=O)N[C@@H](CC(C)C)C(=O)N[C@@H](CCCNC(=N)N)C(=O)N[C@@H](CCCNC(=N)N)C(=O)N[C@H](C)C(=O)N[C@@H](CCCNC(=N)N)C(=O)N1CCC[C@H]1C(=O)N[C@@H](CCCCN)C(N)=O [Arodyn, Ac[Phe^1,2,3,Arg^4,D-Ala^8]Dyn A-(1-11) amide] (Ac-FFFRLRR[dA]RPK-NH2)	1.6	7.6 ± 3 ×10⁻⁶ cm/s	1.73 ± 0.0667 h	–	half-life [3]: < 2 min; half-life [4]: 0.167 to 0.183 h
CC[C@H](C)[C@H](NC(=O)[C@H](CCCN=C(N)N)NC(=O)[C@H](CCCN=C(N)N)NC(=O)[C@H](CC(C)C)NC(=O)[C@H](Cc1ccccc1)NC(=O)CNC(=O)CNC(=O)[C@@H](N)Cc1ccc(O)cc1)C(=O)N[C@@H](CCCN=C(N)N)C(=O)N1CCC[C@H]1C(=O)N[C@@H](CCCCN)C(N)=O [Dyn A-(1-11)NH2, Dynorphin A-(1-11) amide]	0.9	3.8 ± 1.3 ×10⁻⁶ cm/s	< 0.0333 h	–	–
CC(C)[C@@H](CN1CC[C@@](C)(c2cccc(O)c2)[C@@H](C)C1)NC(=O)[C@H]1Cc2ccc(O)cc2CN1 [JDTic, (3R)-7-hydroxy-N-{(1S)-1-{[(3R,4R)-4-(3-hydroxyphenyl)-3,4-dimethyl-1-piperidinyl]methyl}-2-methylpropyl}-1,2,3,4-tetrahydro-3-isoquinolinecarbox-amide]	–	–	–	prolonged duration of action	effect on stress-induced reinstatement of cocaine seeking (literature) (kappa-opioid receptor): suppress stress-induced reinstatement of cocaine self-administration
Oc1ccc2c3c1O[C@H]1c4[nH]c5c(c4C[C@@]4(O)[C@@H](C2)N(CC2CC2)CC[C@]314)C[C@@]1(O)[C@H]2Cc3ccc(O)c4c3[C@@]1(CCN2CC1CC1)[C@H]5O4 [nor-binaltorphimine]	–	–	–	prolonged duration of action	–
N=C(N)NCCC[C@@H]1NC(=O)[C@H](CCCNC(=N)N)NC(=O)[C@H](NC(=O)[C@H](Cc2ccccc2)NC(=O)CNC(=O)CNC(=O)[C@H](Cc2ccc(O)cc2)NCc2ccccc2)CC(=O)NC[C@@H](C(=O)N[C@@H](CCCNC(=N)N)C(=O)N2CCC[C@H]2C(=O)N[C@@H](CCCCN)C(N)=O)NC1=O [zyklophin, [N-benzylTyr^1,cyclo(D-Asp^5,Dap^8)]Dyn A-(1-11) amide]	–	–	–	–	half-life (in vitro): 1.17 h; side effects in mice [6]: no unwanted side affects have been observed; Ki [7]: 30 ± 2 nM; Kb (KOR): 84 nM
